Laboratory results from US7547752B2, “Scalp treatment” (Unilever Home & Personal Care USA division of Conopco, Inc., priority 2002, dated 2009).

System: scalp itch in panellists with self-perceived dandruff
Assay: Clinical anti-itch study: CLA lotion or lotion base applied before AD or NAD shampoo wash, investigator-scored itch degree
Format: in vivo, human
Conditions: lotion applied one hour before hair wash, shampoo 3 times a week, weekly assessment, FIG. 1
Excerpt: The effect of conjugated linoleic acid, used in conjunction with anti-dandruff (AD) and non anti-dandruff (NAD) shampoo, was clinically assessed using the following protocol.
The conjugated linoleic acid is used as a lotion (composition B). The lotion base comprises Tween™ 20, Carbopol™ 980, Sodium Hydroxide, Natrosol™ 250HHR, EDTA-2Na, glydant plus and water (composition A). The use of the lotion is followed by a shampoo wash with an NAD shampoo (composition C) or an AD shampoo (composition D).
A randomised monadic double blind study design was used based on a total of 240 screened panellists, male and female, with self-perceived dandruff. All 240 panellists used a placebo shampoo (composition C) in their normal hair wash routine for 4 successive weeks.
The panellists were divided into four groups (total number of panellists=240):
Group 1: 60 panellists. All panellists wash their hair with NAD shampoo at home 3 times a week and apply CLA lotion one hour prior to washing their hair.
Group 2: 60 panellists. All panellists wash their hair with NAD shampoo at home 3 times a week and apply lotion base (composition A) one hour prior to washing their hair.
Group 3: 60 panellists. All panellists wash their hair with AD shampoo at home 3 times a week and apply CLA lotion one hour prior to washing their hair.
Group 4: 60 panellists. […]

## Conjugated linoleic acid [CLA]
  degree of itch of the scalp (itch degree, standard scale 0-4): can increase the degree of scalp itch
